Experiments:
Assay in all cases: relative viability (nuclei count vs DMSO), 5 days (fraction); higher = more cells survive
[1] = compound: C1=CC2=C(C=CC(=C2)C=C3C(=O)NC(=NCC4=CC=CS4)S3)N=C1 [RO-3306] + C[C@]1(O)C[C@@H](c2nc(-c3ccc4ccc(-c5ccccc5)nc4c3)c3c(N)nccn32)C1 [Linsitinib] (partner 1 µM)
Method in brief: (§1)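 Lung cancer cell lines were seeded in 1536-well plates and dosed by pin tool the next day, with either a single drug or a fixed anchor-drug dose combined with five library-drug doses (not always all listed) spaced in √10 steps. Five days later, one step fixed the cells and stained their nuclei (final 0.05% Triton X-100, 1% formaldehyde, 1 ug/ml Hoechst), and nuclei were counted on 4× images. Relative viability is the nuclei count in treated wells divided by the count in vehicle wells, and each value is the median of duplicate plates.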

[2] = compound: C1=CC2=C(C=CC(=C2)C=C3C(=O)NC(=NCC4=CC=CS4)S3)N=C1 [RO-3306] + Cc1nc(NC(=O)N2CCC[C@H]2C(N)=O)sc1-c1ccnc(C(C)(C)C(F)(F)F)c1 [Alpelisib] (partner 2 µM)
Method in brief: as §1

[3] = compound: O=S(=O)(c1ccccc1)N(CC(F)(F)F)c1ccc(C(O)(C(F)(F)F)C(F)(F)F)cc1 + CC(=O)Nc1cccc(-n2c(=O)n(C3CC3)c(=O)c3c(Nc4ccc(I)cc4F)n(C)c(=O)c(C)c32)c1 [Trametinib] (partner 0.02 µM)
Method in brief: as §1

[4] = compound: O=S(=O)(c1ccccc1)N(CC(F)(F)F)c1ccc(C(O)(C(F)(F)F)C(F)(F)F)cc1 + Nc1nc2[nH]cc(CCc3ccc(C(=O)N[C@@H](CCC(=O)O)C(=O)O)cc3)c2c(=O)[nH]1 [Pemetrexed] (partner 0.2 µM)
Method in brief: as §1

Cell Line	relative viability ([1]; first compound 0.01 µM)	relative viability ([1]; first compound 0.03162 µM)	relative viability ([1]; first compound 0.1 µM)	relative viability ([1]; first compound 0.3162 µM)	relative viability ([1]; first compound 1 µM)	relative viability ([2]; first compound 0.01 µM)	relative viability ([2]; first compound 0.03162 µM)	relative viability ([2]; first compound 0.1 µM)	relative viability ([2]; first compound 0.3162 µM)	relative viability ([2]; first compound 1 µM)	relative viability ([3]; first compound 0.8 µM)	relative viability ([3]; first compound 2.53 µM)	relative viability ([3]; first compound 8 µM)	relative viability ([4]; first compound 0.8 µM)	relative viability ([4]; first compound 2.53 µM)	relative viability ([4]; first compound 8 µM)
NCI-H1395	1.1	0.954	1.06	1.02	1.04	1.12	1.22	1.1	1.03	1.02	1.13	1	0.965	0.887	0.816	0.924
NCI-H3122	1.1	0.995	1.02	0.981	1.03	0.635	0.738	0.832	0.762	0.788	0.166	0.143	0.221	0.209	0.19	0.201
SK-MES-1	1.14	0.859	1.16	1.16	1.15	0.9	0.553	0.831	0.983	0.922	0.546	0.573	0.59	1.12	1	0.824
NCI-H661	0.569	0.458	0.581	0.586	0.728	0.736	0.735	0.686	0.745	0.688	0.677	0.574	0.533	0.908	0.934	0.924
NCI-H322M	0.978	0.709	0.923	1.02	1.03	0.8	0.7	0.707	0.888	0.827	0.497	0.506	0.557	0.603	0.62	0.595
LU99A	0.561	0.489	0.515	0.525	0.495	0.492	0.452	0.564	0.472	0.491	0.521	0.541	0.464	0.184	0.18	0.18
SK-LU-1	1.25	1.08	1.02	1.19	0.957	1.03	1.07	0.951	1.02	0.973	0.466	0.537	0.491	1.05	0.976	1.01
201T	1.11	1.01	1.08	1.09	0.999	1.03	1.01	1.05	0.973	1.04	0.712	0.666	0.681	0.331	0.343	0.401
COR-L23	1.02	–	0.866	0.938	1.06	0.898	–	0.866	0.631	0.75	0.657	0.583	0.539	0.2	0.193	0.208
LCLC-97TM1	–	0.167	0.203	0.202	0.162	–	0.243	0.243	0.27	0.179	–	0.234	0.165	–	0.16	0.179
PC-14	0.989	0.773	0.969	1.02	0.991	0.981	–	0.939	0.953	0.996	0.705	0.554	0.477	0.135	0.116	0.148
NCI-H1651	0.956	0.927	0.922	1.18	0.977	1.07	0.927	0.913	0.867	0.987	0.853	0.867	0.739	0.726	0.61	0.521
HCC-15	0.924	0.755	0.863	0.892	0.839	1.03	0.815	0.869	0.887	0.855	0.37	0.302	0.291	0.213	0.23	0.243
NCI-H1755	1.05	1	1.02	0.995	1.09	1.02	0.772	0.958	0.904	0.859	0.769	0.661	0.815	0.417	0.422	0.436

From the supplement of paper PMC10307832
